The numbers were not newly measured in patent US20190388365A1, “C[…] NEURO-DEGENERATIVE DISEASES AND SIDE-EFFECTS ASSOCIATED WITH COGNITION EFFECTING PHARMACEUTICALS” (priority 2015, published 2019), which cites them from elsewhere.

This series concerns patients receiving morphine. The conditions noted are these: limited clinical trials.

Consider `NC(=O)C[S+]([O-])C(c1ccccc1)c1ccccc1` (racemic) [Modafinil, benzhydrylsulfinylacetamide], for which the “effect on sleepiness and confusion associated with morphine delivery” value was “reverses the sleepiness and even confusion associated with morphine delivery”.
